The source of these data is patent publication US10865216B2, “Tricyclic Gyrase inhibitors” (MERCK SHARP & DOHME CORP., priority 2012, dated 2020).

Molecules are shown by their SMILES. In brackets after ≈: the same amount, converted by molar mass. Like-named read-outs stand apart in the source and are kept apart here.

Common to all, as to assay type: cell-based
Data set [1] has as its system S. aureus ATCC 13709. The data set can be described thus: MIC, S. aureus ATCC 13709. To be noted: Staphylococcus aureus.
Data set [2] has as its system P. aeruginosa ATCC 15692. As to the kind of experiment: MIC, P. aeruginosa ATCC 15692. To be noted: Pseudomonas aeruginosa, ATCC15692.
Data set [3] has as its system E. coli ATCC 25922. As to the kind of experiment: MIC, E. coli ATCC 25922. The conditions noted are these: Escherichia coli.
Data set [4] concerns A. baumannii ATCC 19606. The data set can be described thus: MIC, A. baumannii ATCC 19606. The conditions noted are these: Acinetobacter baumannii, ATCC19606.
The target in data set [5] is T1, hERG (Homo sapiens, UniProt Q12809).
T1 construct: host or cells: Chinese Hamster Ovary K1 cells
The data set can be described thus: Cerep automated patch-clamp hERG assay, Chinese Hamster Ovary K1 cells. To be noted: for IC50: Table 19, automated patch-clamp, CHO K1 cells, tail current. Here is the method:
A Cerep automated patch-clamp assay using Chinese Hamster Ovary K1 cells was used to measure hERG IC50 values. The degree of inhibition (%) was obtained by measuring the tail current amplitude, which is induced by a one second test pulse to −40 mV after a two second pulse to +20 mV, before and after drug incubation (the difference in current was normalized to control and multiplied by 100 to obtain the percent inhibition).
Concentration (log) response curves were fitted to a logistic equation (three parameters assuming complete block of the current at very high test compound concentrations) to generate estimates of the 50% inhibitory concentration (IC50). The concentration-response relationship of each compound was constructed from the percentage reductions of current amplitude by sequential concentrations. The hERG IC50 values are provided in Table 19 below for the compounds tested.

Data set [6] relates to S. pneumoniae ATCC 51916. The data set can be described thus: MIC, S. pneumoniae ATCC 51916. To be noted: Streptococcus pneumoniae, ATCC51916.
Data set [7] relates to K. pneumoniae ATCC 700603. The data set can be described thus: MIC, K. pneumoniae ATCC 700603. The conditions noted are these: Klebsiella pneumoniae, ATCC700603.
Data set [8] relates to B. thailandensis ATCC E264. As to the kind of experiment: microbe, parasite or virus in culture. To be noted: Burkholderia thailandensis, ATCCE264, read-out: Bt MIC.
Data set [9] concerns F. tularensis holarctica LVS. The data set can be described thus: microbe, parasite or virus in culture. To be noted: Francisella tularensis, read-out: Ft MIC.
Data set [10] concerns Bp. As to the kind of experiment: organism not typed. To be noted: read-out: Bp MIC.

T1 sequence (Q12809 whole entry): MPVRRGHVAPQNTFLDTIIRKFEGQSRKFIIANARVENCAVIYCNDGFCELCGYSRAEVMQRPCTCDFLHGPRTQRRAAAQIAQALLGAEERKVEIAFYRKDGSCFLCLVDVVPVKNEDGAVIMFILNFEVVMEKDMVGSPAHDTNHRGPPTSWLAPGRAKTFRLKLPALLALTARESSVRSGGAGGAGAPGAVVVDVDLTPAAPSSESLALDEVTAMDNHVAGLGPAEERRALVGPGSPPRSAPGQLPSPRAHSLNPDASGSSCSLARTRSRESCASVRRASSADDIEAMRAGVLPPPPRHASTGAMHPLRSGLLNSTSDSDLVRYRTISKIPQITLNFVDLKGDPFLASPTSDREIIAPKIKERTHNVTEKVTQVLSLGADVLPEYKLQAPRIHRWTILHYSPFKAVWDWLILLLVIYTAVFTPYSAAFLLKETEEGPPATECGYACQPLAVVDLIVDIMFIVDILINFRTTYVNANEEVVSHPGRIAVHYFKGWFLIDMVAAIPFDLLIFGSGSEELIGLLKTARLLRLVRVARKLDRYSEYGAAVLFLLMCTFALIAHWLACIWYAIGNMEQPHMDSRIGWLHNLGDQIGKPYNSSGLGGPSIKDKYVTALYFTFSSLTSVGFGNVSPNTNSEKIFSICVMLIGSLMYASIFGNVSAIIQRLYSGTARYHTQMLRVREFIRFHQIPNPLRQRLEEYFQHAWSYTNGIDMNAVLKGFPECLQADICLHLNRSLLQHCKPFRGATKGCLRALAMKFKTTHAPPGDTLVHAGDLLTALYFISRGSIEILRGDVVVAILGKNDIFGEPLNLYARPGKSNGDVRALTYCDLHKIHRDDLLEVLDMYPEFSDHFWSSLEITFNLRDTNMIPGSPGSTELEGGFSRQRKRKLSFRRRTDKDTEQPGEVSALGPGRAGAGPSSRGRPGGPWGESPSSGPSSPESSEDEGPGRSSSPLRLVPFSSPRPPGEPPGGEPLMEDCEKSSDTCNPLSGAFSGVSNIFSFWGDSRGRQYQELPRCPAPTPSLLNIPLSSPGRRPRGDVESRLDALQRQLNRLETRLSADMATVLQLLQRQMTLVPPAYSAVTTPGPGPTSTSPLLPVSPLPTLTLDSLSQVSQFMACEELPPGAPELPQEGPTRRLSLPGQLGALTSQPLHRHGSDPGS

Take `CNc1cc(F)cc2c1[nH]c1nc(Oc3cnc(C(C)O)nc3)nc(N3CC4C[C@@H](N)C4C3)c12` (some centres unmarked) [Compound 4.409]: the MIC in [1] (ATCC13709, S. aureus, Alamar Blue read after overnight incubation at 35° C., read-out: MIC Sa) was not above 0.5 µg/mL; in data set [1] (ATCC13709, Table 10, Sa = S. aureus, read-out: Sa MIC), not above 0.5 µg/mL; in data set [2] (Table 10, Pa = P. aeruginosa), 1 µg/mL (≈ 2.15 µM); in [3] (ATCC25922, E. coli, Alamar Blue read after overnight incubation at 35° C., read-out: MIC Ec) it was not above 0.5 µg/mL; in data set [3] (ATCC25922, Table 10, Ec = E. coli, strain not stated, read-out: Ec MIC) it was not above 0.5 µg/mL; in data set [4] (Table 10, Ab = A. baumannii, strain not stated) it was 1 µg/mL (≈ 2.15 µM). The MIC in data set [6] (Table 10, Spn = S. pneumoniae) was not above 0.5 µg/mL; in [7] (Table 10, Kpn = K. pneumoniae), 4 µg/mL (≈ 8.61 µM). In data set [5], the 50% inhibitory concentration (IC50) came out at 7.5 µM.
With `CNc1cc(F)c(F)c2c1[nH]c1nc(Oc3cnc([C@@H](C)O)nc3)nc(N3C[C@H]4C[C@@H]3C[C@H]4N)c12` [Compound 9.1], the MIC is not above 0.5 µg/mL in data set [1] (ATCC13709, Table 20, read-out: Sa MIC); 0.5 µg/mL (≈ 1.04 µM) in [8]; 0.5 µg/mL (≈ 1.04 µM) in [9]; 2 µg/mL (≈ 4.15 µM) in data set [2] (Table 20, read-out: Pa MIC); not above 0.5 µg/mL in [3] (ATCC25922, Table 20, read-out: Ec MIC); 1 µg/mL (≈ 2.07 µM) in data set [4] (Table 20, read-out: Ab MIC). The MIC is 0.5 µg/mL (≈ 1.04 µM) in data set [10]; not above 0.5 µg/mL in data set [6] (Table 20, read-out: Spn MIC); 4 µg/mL (≈ 8.29 µM) in data set [7] (Table 20, read-out: Kpn MIC). Also, in data set [5], the IC50 lay in the range of 80 to 100 µM. The “selectivity in the hERG assay” value in [5] (compared with previous compounds in the series) is “significantly more selective”.
